Consider two compounds from patent US8883798B2, “Pyrimidine compounds inhibiting the formation of nitric oxide and prostaglandin E2, method of production thereof and use thereof” (Ustav Organicke Chemie a Biochemie Akademie Ved CR, V.V.I., priority 2011, dated 2014).

One data set has as its system peritoneal cells of mice. Put plainly: Cell viability of mouse peritoneal cells (WST-1 kit). The format is cell-based. The settings on record: Table 3A, substance 50 μmol·l^−1, 24 h. Summed up: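 C57BL/6 mouse peritoneal cells (1×10^6/mL) cultured 24 h with compounds at 50 μmol·l^−1. Viability read with WST-1 tetrazolium salt and expressed as percent of untreated control cells (100%).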

For data set [1], the system named is Salmonella typhimurium TA 98 and TA 100, Escherichia coli WP2 uvrA. The settings on record: all strains, all tested concentrations, with and without metabolic activation. The protocol:
With compound 28, its possible mutagenicity (genotoxicity) was assessed using the standard bacterial reverse mutation test. According to Council Regulation (ES) No. 440/2008, stipulating the test methods according to the European Parliament and Council regulation (ES), the method used was B.13/14, Mutagenicity—Reverse Mutation Test Using Bacteria, which is described in the same way also in the OECD Test Guideline No. 471.
[…] The experiments were conducted without using metabolic activation and after activation with supernatant S9 from […] livers and with mixtures of cofactors (NADP and glucoso-6-phosphate) to determine the mutagenicity of the metabolic products of the compound tested. Supernatant S9 was prepared according to the literature [Mutat. Res. 113, 173-215, 1983].
The principle of the test is to detect possible revertants created by reverse mutation, which would be induced in the bacterial culture by the tested compound. Specially constructed bacterial strains are used, carrying mutations in the place for his (trp), which are not capable of forming colonies on the minimum plates without histidine or tryptophan. […] Mutagenic potential is given by the growing number of revertants in the influenced groups in comparison with a negative control, and/or in dependence on the growing number of revertants on the dose of the tested compound.
Bacterial testers, types Salmonella typhimurium TA 98 (CCM 3811) and Escherichia coli WP2 uvrA (CCM 4751), were acquired from the Czech Collection of Microorganisms of Masaryk University, Brno and the strain Salmonella typhimurium TA100 (CIP 103796, lot No. 1008) from the Biological Resource Center, Institut Pasteur in Paris (CRBIP).

The subject of data set [2] is adjuvant arthritis in sewer rats. Kind of data set: Adjuvant arthritis in female Lewis sewer rats (Freund's complete adjuvant). The format is in vivo, sewer rats of the inbred strain Lewis. To be noted: 50 mg/kg orally, Day 9 to Day 16; versus methylcellulose group.
For data set [3], the system named is human umbilical vein endothelial cells (HUVEC). Put plainly: Tube formation assay of HUVEC on Matrigel (in vitro angiogenesis). Format: cell-based. The settings on record: 8 h. From the text: This so called “Tube Formation Assay” is a method based on the ability of endothelial cells to form capillary-like tubular structures when cultured on Matrigel™ (a gel of basement membrane extract—their natural substrate). The process of capillary-like tube formation includes endothelial cell attachment, migration, and differentiation into tubules. In this experiment, treatment with tested compounds started at the time of seeding HUVEC onto Matrigel and the extent of tubule development was observed after an 8 h time period. Disruption of tube formation was then assessed through observation of the tubular network and direct comparison to solvent-only controls. The quantitative and qualitative measurement of tubular network complexity was performed using web-based S.CORE imaging software and expressed by means of number of tubes, their total length, quality, number of branching points, etc. All these parameters were integrated into “tube formation index” which corresponds to the degree of complexity of tubular network. […] At a 10 μmol/L concentration, compound 23 reduced tube formation by >90%. […] Apoptosis in HUVECs (at ˜70% confluency) treated with or without varying concentrations (relevant for the tube formation assay) of tested substances was assessed by a combination of Annexin V and JC-1 staining. After 8 h of these treatments, cells were collected, and the cell population undergoing apoptosis was identified by double-parameter flow cytometry using annexin V and the vital dye propidium iodide (PI). Mitochondrial membrane potential in treated endothelial cells was measured using the lypophilic probe JC-1, which aggregates in healthy mitochondria and fluoresces red, but diffuses in the cytoplasm and fluoresces green upon mitochondrial damage. In both cases, quantification of apoptotic cells were conducted in BD FACSDiva software.

The next data set concerns HUVEC. Put plainly: HUVEC cell proliferation (XTT assay). Format: cell-based, human. To be noted: 10 to 50 μmol/L, 8 hours.
In the next data set the test system is chronic colitis in mice. Put plainly: Chronic murine colitis induced by dextran sulfate sodium. The format is in vivo, mice (Balb/c). The settings on record: 10 mg/kg orally, daily for 15 days. As to the method:
Chronic colitis was induced in mice (Balb/c) by dextran sulfate sodium (DSS), used as a 3% solution in drinking water. DSS treatment was applied intermittently on the three 5-day intervals, separated by the 9-day intervals (i.e. between the DSS cycles 1/2 and 2/3) during which the mice drunk normal water.
The test compounds were given orally, suspended in 0.5% methylcellulose. The dose was 10 mg/kg. The daily dosing started immediately after the second DSS interval and lasted to the end of the 3rd DSS interval, i.e. for the duration of 15 days. At this point, the animals were sacrificed and clinical signs of colitis were examined. Except of continuous monitoring the body weight, the following parameters were evaluated: a) colon length, b) disease activity index, and c) histological grade. Three compounds were included in this experiment: nos. 19, 51, and 28. 5-Aminosalycilic acid was used as a positive reference drug. The effects were compared to the group of mice receiving placebo (0.5% methylcellulose).

For data set [4], the system named is human peripheral blood lymphocytes. Put plainly: Chromosomal aberration test in vitro. The format is cell-based. The settings on record: 0.1, 0.2 and 0.5 mg/ml; with and without metabolic activation. The protocol: The clastogenicity potential of compound no. 28 was determined using chromosomal aberration test in vitro. The test was carried out in human peripheral blood lymphocytes both with and without metabolic activation system in two separate assays.
Three concentrations were selected for the test: 0.1, 0.2 and 0.5 mg/ml of final culture. Cells were arrested at metaphase by colchicine, harvested and slides were stained. Metaphase cells were analyzed microscopically for the presence of chromosomal aberrations. A total of 200 well-spread metaphases were examined per concentration on coded slides. Concurrent positive (thiotepa, cyclophosphamide) and negative (2% DMSO) controls were included in each experiment. […].

The conditions of data set [5]: rat, in vivo, po, 800 mg/kg.
Protocol: (§1) 28. The plasma samples were taken in intervals during 48 hours. […] Plasma samples were prepared by centrifugation (3500 rpm, 10 min, 4° C.), transferred into appropriately labelled and sealed Eppendorf tubes and frozen at −20° C. until transportation to analyses. The plasma was split into two aliquots. All samples were transported in a sufficient amount of dry ice to the analytical laboratory.
(§2) The analysis was performed using HPLC/MS/MS method with the use of internal deuterated standard and precipitation separation method. The analytical method used 50 μl of plasma sample for each analysis. The method was validated for concentration as low as 10.0 ng of the compound in 1 ml of plasma. A weighted liner regression was evaluated over the concentration range from 10.0-10 000.0 ng of the compound in 1 ml of plasma. Spiked plasma samples were precipitated with the solution of internal standard. The sample supernatant was analyzed on HPL/MS/MS system TSQ-03.
Data set [6] in a line: Pilot toxic-kinetic study, single per-oral administration. To be noted: female Wistar rats; single per-oral dose 800 mg/kg; plasma.
Protocol: as §1, §2

As for `CCCCc1c(Cl)nc(NC=O)nc1Cl` [Substance 51], the “Cell viability in % of the controls” value in the data set with peritoneal cells of mice was 92.15 ± 9.90 % of the controls. Moreover, the “Mutagenicity (reverse mutation)” value in data set [1] is given as “non-mutagenous”. Besides, the “Severity of adjuvant arthritis (size of contralateral paws)” value in data set [2] was “distinctive (statistically significant) reduction of the severity of the illness”. Moreover, the “Effect on tube formation” value in data set [3] (10 μmol/L) is “only limited effect”. The Incomplete tube formation in [3] (25 μmol/L) is around 6%. The Capillary tube formation entry in [3] is reported as “inhibited capillary tube formation in a dose dependent manner”. In addition, the HUVEC cell proliferation result in the data set on HUVEC is reported as “did not influence HUVEC cell proliferation”.

Turning to `CCCCc1c(Cl)nc(N)nc1Cl` [Substance 28], the “Cell viability in % of the controls” value in the data set with peritoneal cells of mice is given as 100.42 ± 5.77 % of the controls. In data set [1], the “Mutagenicity (reverse mutation)” value is reported as “non-mutagenous”. Further, in the data set with chronic colitis in mice, the “Clinical signs of chronic experimental colitis” value was “significantly lowers the clinical signs of chronic experimental colitis”, the “Colon length (inflammation in the gut)” value was “protection against the shortening of colon”, the “Effectiveness compared with 5-aminosalycilic acid” value is on record as “slightly more effective than the reference drug” and the “Overall disease activity index” value was “lower than in the placebo group”. For the same compound, the “Numerical and structural chromosome aberrations (clastogenicity)” value in data set [4] is “did not induce an increase in numerical and structural chromosome aberrations”. Further, in data set [5], the “Toxic effect in animals” value is on record as “No apparent toxic effect was observed”. Further, in data set [6], the “Cmax = maximum concentration” value is 337.2 ng/mL and the “Terminal elimination rate half-life” value stood at 15.9 h.
